Here are results for 35 molecules from patent publication US11512069B2, “TLR7/8 antagonists and uses thereof” (Merck Patent GmbH, priority 2016, dated 2022).

In this assay the target is T1, TLR7 (Homo sapiens, UniProt Q9NYK1).
T1 construct: expressed in transfected cells; host or cells: HEK cells carrying TLR7 and an NF-kB reporter read with Steady-Glo
T1 sequence (Q9NYK1 27-1049): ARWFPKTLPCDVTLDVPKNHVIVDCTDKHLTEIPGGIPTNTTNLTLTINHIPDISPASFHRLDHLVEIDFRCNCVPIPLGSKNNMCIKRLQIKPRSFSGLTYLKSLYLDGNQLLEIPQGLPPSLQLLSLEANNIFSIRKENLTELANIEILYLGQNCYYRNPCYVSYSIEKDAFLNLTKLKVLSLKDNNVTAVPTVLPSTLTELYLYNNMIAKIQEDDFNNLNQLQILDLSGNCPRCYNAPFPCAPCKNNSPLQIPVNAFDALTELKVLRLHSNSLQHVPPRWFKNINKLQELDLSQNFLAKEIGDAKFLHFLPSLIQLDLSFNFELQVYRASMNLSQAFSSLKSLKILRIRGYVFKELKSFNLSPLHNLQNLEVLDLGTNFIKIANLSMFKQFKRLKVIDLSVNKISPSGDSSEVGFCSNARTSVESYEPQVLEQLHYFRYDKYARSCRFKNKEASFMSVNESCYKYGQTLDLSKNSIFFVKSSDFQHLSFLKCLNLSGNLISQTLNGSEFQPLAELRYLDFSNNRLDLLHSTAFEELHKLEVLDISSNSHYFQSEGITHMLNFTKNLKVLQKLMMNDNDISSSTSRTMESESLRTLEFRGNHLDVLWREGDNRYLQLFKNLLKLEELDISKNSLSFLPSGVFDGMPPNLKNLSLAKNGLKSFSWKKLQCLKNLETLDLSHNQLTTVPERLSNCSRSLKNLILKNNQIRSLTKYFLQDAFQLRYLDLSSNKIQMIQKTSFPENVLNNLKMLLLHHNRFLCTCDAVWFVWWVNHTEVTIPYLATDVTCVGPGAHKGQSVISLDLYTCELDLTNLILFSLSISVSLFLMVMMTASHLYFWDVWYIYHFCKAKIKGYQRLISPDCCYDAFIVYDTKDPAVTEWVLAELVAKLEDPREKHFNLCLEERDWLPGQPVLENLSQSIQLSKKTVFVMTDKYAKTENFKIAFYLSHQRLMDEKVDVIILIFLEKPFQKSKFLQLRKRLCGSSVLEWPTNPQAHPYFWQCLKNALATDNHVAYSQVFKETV
Put plainly: HEK Cell Assay (TLR7/NFKb HEK reporter cells, Steady-Glo). In kind it is cell-based. Particulars: compound 30 min, then R*48 agonist 5 hours, Steady-Glo readout, read-out: Potency. The procedure: Example 32: HEK Cell Assay
Into 384 CulturePlates (Corning 3707) was placed 5000 c/w of TLR7/NFKb HEK cells in 30 uL DMEM without Phenil red (gibco #31053) and 10% i.a. FCS and 2 mM L-ZGLutamin. The cells were incubated for 24 h at 37 degrees Celsius, 10% carbon dioxide and 90% relative humidity, 3 uL of controls, standards, and compounds were dispensed to wells, incubated for 30 min then 3 uL of R*48 agonist in 20 mM Hepes was added. After incubation for 5 hours, it was allowed to stand at room temperature for 15 min, 10 uL of Steady-Glo substrate reagent was added and shake assay plate for 5 min at 1500 rpm. The assay plate was allowed to sit for 30 min at room temperature and then read plate on EnVision.

On to `COCCN[C@@H]1C[C@H](C)C[C@H](c2ccc(C#N)c3nccnc23)C1` (relative stereo) [Compound 133, 8-[(cis-1,3,5)-3-[(2-methoxyethyl)amino]-5-methylcyclohexyl]quinoxaline-5-carbonitrile], for which the IC50 is below 1000 nM.
For `COCCN[C@@H]1C[C@H](C)C[C@@H](c2ccc(C#N)c3nccnc23)C1` (relative stereo) [Compound 134, 8-[(1,trans-3,cis-5)-3-[(2-methoxyethyl)amino]-5-methylcyclohexyl]quinoxaline-5-carbonitrile], the IC50 lay within 1000 to 20000 nM.
The value for `CC1CC(c2ccc(C(F)(F)F)c3ncccc23)CN(C(=O)CCN2CCN(C)CC2)C1` (stereo in doubt) [Compound 45, 3-(4-Methyl-piperazin-1-yl)-1-[(3S,5S)-3-methyl-5-(8-trifluoromethyl-quinolin-5-yl)-piperidin-1-yl]-propan-1-one] was 1000 to 20000 nM; that for `CC1CC(c2ccc(C#N)c3ncccc23)CN(C(=O)CC2CCN(C)CC2)C1` (stereo in doubt) [Compound 55, 5-{(3S,5R)-5-Methyl-1-[2-(1-methyl-piperidin-4-yl)-acetyl]-piperidin-3-yl}-quinoline-8-carbonitrile] was below 1000 nM.
The same measure for `C[C@@H]1C[C@H](c2ccc(C#N)c3ncccc23)CN(C(=O)CC2CCN(C)CC2)C1` [Compound 1]: below 1000 nM.
The same measure for `C[C@@H]1CC(c2ccc(C#N)c3ncccc23)CN(C(=O)CC2CCN(C)CC2)C1` (some centres unmarked) [Compound 2]: below 1000 nM; for `CC1CC(c2ccc(C(F)(F)F)c3ncccc23)CN(C(=O)CC2CCN(C)CC2)C1` (centres unmarked) [Compound 3, 2-(1-Methyl-piperidin-4-yl)-1-[3-methyl-5-(8-trifluoromethyl-quinolin-5-yl)-piperidin-1-yl]-ethanone]: below 1000 nM; for `CC1CC(c2ccc(C(F)(F)F)c3ncccc23)CN(C(=O)CCN2CCN(C)CC2)C1` (centres unmarked) [Compound 11, 3-(4-Methyl-piperazin-1-yl)-1-[3-methyl-5-(8-trifluoromethyl-quinolin-5-yl)-piperidin-1-yl]-propan-1-one]: 1000 to 20000 nM.
Regarding `C[C@@H]1CC(c2ccc(C(F)(F)F)c3ncccc23)CN(C(=O)CCn2cccn2)C1` (some centres unmarked) [Compound 12], the IC50 is above 20000 nM.
The same measure for `CC1C[C@@H](c2ccc(C(F)(F)F)c3ncccc23)CN(C(=O)CN2CCOCC2)C1` (some centres unmarked) [Compound 17]: above 20000 nM.
Take `CC1CC(c2ccc(C(F)(F)F)c3ncccc23)CN(C(=O)CC2CC3CCC(C2)N3C)C1` (centres unmarked) [Compound 18, 2-(8-Methyl-8-aza-bicyclo[3.2.1]oct-3-yl)-1-[3-methyl-5-(8-trifluoromethyl-quinolin-5-yl)-piperidin-1-yl]-ethanone]: the IC50 is below 1000 nM.
Take `CC1C[C@@H](c2ccc(C#N)c3ncccc23)CN(C(=O)Cc2cccnc2)C1` (some centres unmarked) [Compound 21]: the IC50 is above 20000 nM.
The value for `CC1CC(c2ccc(Cl)c3ncccc23)CN(C(=O)CC2CCN(C)CC2)C1` (centres unmarked) [Compound 22, 1-[3-(8-Chloro-quinolin-5-yl)-5-methyl-piperidin-1-yl]-2-(1-methyl-piperidin-4-yl)-ethanone] was below 1000 nM; that for `CC1CC(c2ccc(C#N)c3ncccc23)CN(C(=O)CCC2CCN(C)CC2)C1` (centres unmarked) [Compound 23] was below 1000 nM.
Take `CC1C[C@H](c2ccc(C#N)c3ncccc23)CN(C(=O)CCc2cccnc2)C1` (some centres unmarked) [Compound 25]: the IC50 is 1000 to 20000 nM.
On to `CC1C[C@H](c2ccc(C#N)c3ncccc23)CN(C(=O)CC(F)(F)F)C1` (some centres unmarked) [Compound 27], for which the IC50 is above 20000 nM.
On to `C[C@@H]1C[C@H](c2ccc(C#N)c3ncccc23)CN(C(=O)CC2CCN(C)C2)C1` (stereo partly drawn) [Compound 35, cis-5-Methyl-1-[2-(1-methyl-pyrrolidin-3-yl)-acetyl]-piperidin-3-yl-quinoline-8-carbonitrile], for which the IC50 is below 1000 nM.
For `C[C@@H]1C[C@H](c2ccc(C(F)(F)F)c3ncccc23)CN(C(=O)CC2CCN(C)CC2)C1` [Compound 42, 2-(1-Methyl-piperidin-4-yl)-1-[(3R,5R)-3-methyl-5-(8-trifluoromethyl-quinolin-5-yl)-piperidin-1-yl]-ethanone], the IC50 is below 1000 nM.
For `C[C@H]1C[C@@H](c2ccc(C(F)(F)F)c3ncccc23)CN(C(=O)CC2CCN(C)CC2)C1` [Compound 43, 2-(1-Methyl-piperidin-4-yl)-1-[(3S,5S)-3-methyl-5-(8-trifluoromethyl-quinolin-5-yl)-piperidin-1-yl]-ethanone], the IC50 fell in the range of 1000 to 20000 nM.
In the case of `C[C@@H]1C[C@H](c2ccc(C(F)(F)F)c3ncccc23)CN(C(=O)CCN2CCN(C)CC2)C1` [Compound 44, 3-(4-Methyl-piperazin-1-yl)-1-[(3R,5R)-3-methyl-5-(8-trifluoromethyl-quinolin-5-yl)-piperidin-1-yl]-propan-1-one], the IC50 is below 1000 nM.
For `CC(C)N1CCC(CC(=O)N2C[C@H](C)C[C@H](c3ccc(C#N)c4ncccc34)C2)CC1` [Compound 46, 5-{(3R,5R)-1-[2-(1-Isopropyl-piperidin-4-yl)-acetyl]-5-methyl-piperidin-3-yl}-quinoline-8-carbonitrile], the IC50 is below 1000 nM.
Regarding `CC(C)N1CCC(CC(=O)N2C[C@@H](C)C[C@@H](c3ccc(C#N)c4ncccc34)C2)CC1` [Compound 47, 5-{(3S,5S)-1-[2-(1-Isopropyl-piperidin-4-yl)-acetyl]-5-methyl-piperidin-3-yl}-quinoline-8-carbonitrile], the IC50 lay in the range of 1000 to 20000 nM.
For `COC(=O)CCN1CC(C)CC(c2ccc(C#N)c3ncccc23)C1` (centres unmarked) [Compound 48, 3-[3-(8-Cyano-quinolin-5-yl)-5-methyl-piperidin-1-yl]-propionic acid methyl ester], the IC50 is above 20000 nM.
Consider `CC1CC(c2ccc(C#N)c3ncccc23)CN(CCC(N)=O)C1` (centres unmarked) [Compound 49, 3-[3-(8-Cyano-quinolin-5-yl)-5-methyl-piperidin-1-yl]-propionamide], for which the IC50 was above 20000 nM.
As for `CNC(=O)CCN1CC(C)CC(c2ccc(C#N)c3ncccc23)C1` (centres unmarked) [Compound 50], the IC50 is above 20000 nM.
On to `CC1CC(c2ccc(C#N)c3ncccc23)CN(CC2CCN(C)C2)C1` (centres unmarked) [Compound 51], for which the IC50 is below 1000 nM.
For `CC1CC(c2ccc(C#N)c3ncccc23)CN(CC2CCN(C)CC2)C1` (centres unmarked) [Compound 52], the IC50 was below 1000 nM.
The value for `C[C@@H]1C[C@@H](c2ccc(C#N)c3ncccc23)CN(C(=O)CC2CCN(C)CC2)C1` [Compound 54, 5-{(3S,5R)-5-Methyl-1-[2-(1-methyl-piperidin-4-yl)-acetyl]-piperidin-3-yl}-quinoline-8-carbonitrile] was below 1000 nM; that for `C[C@H]1C[C@@H](c2ccc(C#N)c3ncccc23)CN(C(=O)CC2CCN(C)CC2)C1` [Compound 56] was 1000 to 20000 nM; that for `CC1CC(c2ccc(C(F)(F)F)c3ncccc23)CN(c2ccon2)C1` (centres unmarked) [Compound 57, 5-(1-Isoxazol-3-yl-5-methyl-piperidin-3-yl)-8-trifluoromethyl-quinoline] was above 20000 nM.
For the molecule `CC1CC(c2ccc(C(F)(F)F)c3ncccc23)CN(c2cnn(C)c2)C1` (centres unmarked) [Compound 58, 5-[5-Methyl-1-(1-methyl-1H-pyrazol-4-yl)-piperidin-3-yl]-8-trifluoromethyl-quinoline], the IC50 was in the range of 1000 to 20000 nM.
Turning to `CC1CC(c2ccc(C(F)(F)F)c3ncccc23)CN(c2ncco2)C1` (centres unmarked) [Compound 59, 5-(5-Methyl-1-oxazol-2-yl-piperidin-3-yl)-8-trifluoromethyl-quinoline], the IC50 fell in the range of 1000 to 20000 nM.
`C[C@@H]1C[C@@H](c2ccc(C#N)c3ncccc23)CN(C(=O)[C@@H](N)C2CC2)C1` [Compound 60, trans-1-((S)-2-Amino-2-cyclopropyl-acetyl)-5-methyl-piperidin-3-yl-quinoline-8-carbonitrile]: the IC50 lay within 1000 to 20000 nM.
As to `C[C@@H]1C[C@H](c2ccc(C#N)c3ncccc23)CN(C(=O)[C@@H](N)C2CC2)C1` [Compound 61], the IC50 lay in the range of 1000 to 20000 nM.
Turning to `C[C@@H]1C[C@H](c2ccc(C#N)c3ncccc23)CN(C(=O)C[C@@H]2[C@H]3CN(C)C[C@@H]23)C1` [Compound 78], the IC50 was below 1000 nM.
